Consider 1 substance from patent US20030226169A1, “DNA sequences encoding antifungal proteins” (priority 1995, published 2003).

Where only a bound is given, the exact number is not on record here.

One data set deals with various fungi. The conditions noted are these: on various fungi; cited from earlier work.
For data set [1], the system named is Fusarium culmorum (IMI 180420). Nature of the data set: Antifungal growth inhibition microplate assay (photospectrometry). The format is cell-based. The procedure, abridged: (§1)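 Spores (2×10^4/ml) in half-strength potato dextrose broth exposed to test solution, incubated in the dark at room temperature for about 72 h (96 h for V. dahliae). Growth by OD595 minus 30-min reading; IC50 is 50% and MIC 100% growth inhibition.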

Data set [2] deals with Alternaria brassicicola (MUCL 20297). Described as above. The format is cell-based. The settings on record: Rs-AFP2 15-mer MPS peptides; one test. In short, it runs like this:
as §1

Data set [3] deals with Botrytis cinerea (MUCL 30158). The description is as above. The class given is cell-based. The conditions noted are these: Rs-AFP2 15-mer MPS peptides; one test. The procedure, abridged:
as §1

For data set [4], the system named is Verticillium dahliae (MUCL 19210). The data set is described as above. The conditions noted are these: Rs-AFP2 15-mer MPS peptides; one test; 96 hours. The format is cell-based. The procedure, abridged: as §1
Data set [5] deals with Ascophyta pisi (MUCL 30164). The class given is cell-based. The conditions noted are these: Rs-AFP2 15-mer MPS peptides; one test. As for the experimental part:
The following fungal strains were used: Alternaria brassicicola (MUCL 20297), Ascophyta pisi (MUCL 30164), Botrytis cinerea (MUCL 30158), Fusarium culmorum (IMI 180420) and Verticillium dahliae (MUCL 19210).
Fungi were grown on six cereal agar plates at room temperature and under white fluorescent light except for F culmorum and V dahliae which were grown in the dark. The duration of the spore harvest varied between 10 and 25 days depending on the strain. Spores were collected as follows. Five to ten ml of sterile milli-Q water was poured into each dish and the surface of the agar was rubbed with a sterile spatula to obtain a suspension containing mycelium and spores. This suspension was filtered through a sterile glasswool-plugged funnel and the filtrate containing the spores was collected in a sterile polypropylene centrifuge tube. The A brassicicola spores were suspended in sterile 0.1 Tween 20 (Merk, 822184) due to their hydrophobic nature. The spore suspensions were then washed twice by centrifugation at 2,400×g for 15 minutes and resuspended in a small volume of steril milli-Q water. The spore density was determined in a counting chamber and then adjusted to 4×10^7 spores per ml. Aliquots of the spore suspension were transferred to sterile microtubes and an equal volume of sterile 50% glycerol (Merck, 4091) was added to each tube so that a final spore suspension of 2×10^7 spores per ml in 25% glycerol was obtained. After careful mixing of the stock, the spore suspension was transferred in 100 μl aliquots to sterile microtubes and stored at −80° C.
Antifungal activity was measured by photospectrometry as described by Broekaert et al, (1990, FEMS Microbiol Lett, 69:55-60). Tests were performed by adding 20 μl of test solution and 80 μl of a fungal spore suspension (2×10^4 spores/ml) per well in a sterile flat-bottom 96-well microtiterplate. The spore suspension was prepared by diluting the stock spore suspension ([…] in 25% glycerol) 1:1000 in half-strength potato dextrose broth. A positive growth control consisting of eight wells containing 20 μl of sterile milli-Q water and 80 μl of the fungal spore suspension was included in each test. The microtiterplates were incubated (with the lid on) in an aerated place at room temperature and under conditions of darkness for all test organisms.
After 30 minutes of incubation (when the spores are settled on the well bottom) the optical density was measured in a microplate reader (Bio Rad 3550-UV) at 595 nm. Incubation of the microtiterplates continued until the optical density of the control microculture was between 0.250 and 0.500, which took approximately 72 hours (96 hours for V dahliae). Percentage of growth inhibition (% GI) was estimated as 100 times the ratio of the corrected absorbance of the control microculture minus the corrected absorbance of the test microculture over the corrected absorbance of the control microculture at 595 nm. The corrected absorbance values equal the absorbance at 595 nm of the culture measured after 72 or 96 hours minus the absorbance at 595 nm measured after 30 minutes.
% GI=[(Acontrol−Atest/Acontrol]×100
where Acontrol=(A72/96h−A30min)control
The IC50 value is defined as the concentration that gives a 50% growth inhibition after 72 or 96 hours of incubation. The minimum inhibitory concentration (MIC) corresponds to the minimum concentration that gives 100% growth inhibition after 72 or 96 hours incubation.

Another data set deals with yeast. The conditions noted are these: at concentrations as high as 500 μg/ml; cited from earlier work.
[6] abbreviates: Table 14: 18-, 19-, 20-mer peptides with C-terminal Phe49, duplo.

As usually defined, the MIC is the lowest concentration found to suppress growth. Low readings indicate inhibition by little substance, high ones a need for much substance. As for “Rs-AFP2: antifungal protein 2 (plant defensin) from radish (Raphanus sativus) seeds; positive control (QKLCQRPSGTWSGVCGNNNACKNQCIRLEKARHGSCNYVFPAHKCICYFPC; listed as Raphanus sativus)”, in the data set with various fungi, the “activity relative to Rs-AFP1” value is “two- to thirty-fold more active”. Further, the “MIC VALUES F CULMORUM MPS” value in data set [1] (Rs-AFP2 15-mer MPS peptides, medium value of five tests) was 5 to 10 mg/L. The “MIC VALUES F CULMORUM Split” value in data set [1] (Rs-AFP2 15-mer split peptides (extra C-terminal beta-alanine), dilution 500-3.9 μg/ml, duplicate, MIC approximations) amounted to 10 mg/L. Further, the MIC in data set [1] (Table 12: Rs-AFP2 15-mer peptides, ½ PDB) is 3 mg/L; in data set [1] (Table 12: ½ PDB supplemented with 1 mM CaCl2) it was 6 mg/L; in data set [1] (Table 12: ½ PDB supplemented with 5 mM CaCl2), 6 mg/L; in data set [1] (Table 12: ½ PDB supplemented with 10 mM KCl) it was 3 mg/L; in data set [1] (Table 12: ½ PDB supplemented with 50 mM KCl) it was 3 mg/L; in data set [1] (Table 12: ½ PDB supplemented with 50 mM KCl, 1 mM CaCl2) it was 6 mg/L. In addition, the “IC50 1/2 PDB” value in data set [1] (Table 13: linear β2-β3 loop MPS peptides, 2 × 10^4 spores/ml, duplo) worked out at 3.3 ± 0.0 mg/L. Also, the “IC50 SMF + pH5” value was found to be 5.2 ± 1.2 μg/ml in data set [1] (Table 13: linear β2-β3 loop MPS peptides, SMF+ (1 mM Ca2+, 50 mM K+) pH5, duplo) and 7.2 ± 0.6 μg/ml in data set [1] (setting [6]). Further, the “IC50 SMF + pH7” value came to 6.1 ± 1.3 μg/ml in data set [1] (Table 13: linear β2-β3 loop MPS peptides, SMF+ (1 mM Ca2+, 50 mM K+) pH7, duplo) and 3.7 ± 0.6 μg/ml in data set [1] (setting [6]). For the same substance, in data set [1] (Table 14: 18-, 19-, 20-mer peptides with C-terminal Phe49, peptides single experiment), the “IC50 ½ PDB” value turned out to be 2.5 ± 0.8 mg/L. Besides, the “MIC VALUES A BRASSICICOLA” value in data set [2] turned out to be 10 mg/L. The “MIC VALUES B CINEREA” value in data set [3] is more than 40 mg/L. For the same substance, in data set [4], the “MIC VALUES V DAHLIAE” value is 10 mg/L. In addition, in data set [5], the “MIC VALUES A PISI” value lay within 20 to 40 mg/L. For the same substance, the “adverse effects on yeast” value in the data set with yeast is reported as “does not have adverse effects”.
